Laboratory results reported in ChEMBL document CHEMBL4627384, “l-Thyroxin and the Nonclassical Thyroid Hormone TETRAC Are Potent Activators of PPARγ” (J Med Chem, 2020).
Active and inactive are the calls of the source. The rule behind the calls is not given here.

Columns and labels:
[1] = target: T1, Retinoic acid receptor RXR-alpha (Homo sapiens) (UniProt P19793); experiment: Agonist activity at recombinant human pFA-CMV fused RXRalpha LBD expressed in HEK293T cells transfected with pFR-luciferase plasmid and pRL-SV40 plasmid at 10 uM incubated for 14 to 16 hrs by dual glo luciferase reporter gene assay; assay type: cell-based; conditions: HEK-293T
T1 sequence (whole entry): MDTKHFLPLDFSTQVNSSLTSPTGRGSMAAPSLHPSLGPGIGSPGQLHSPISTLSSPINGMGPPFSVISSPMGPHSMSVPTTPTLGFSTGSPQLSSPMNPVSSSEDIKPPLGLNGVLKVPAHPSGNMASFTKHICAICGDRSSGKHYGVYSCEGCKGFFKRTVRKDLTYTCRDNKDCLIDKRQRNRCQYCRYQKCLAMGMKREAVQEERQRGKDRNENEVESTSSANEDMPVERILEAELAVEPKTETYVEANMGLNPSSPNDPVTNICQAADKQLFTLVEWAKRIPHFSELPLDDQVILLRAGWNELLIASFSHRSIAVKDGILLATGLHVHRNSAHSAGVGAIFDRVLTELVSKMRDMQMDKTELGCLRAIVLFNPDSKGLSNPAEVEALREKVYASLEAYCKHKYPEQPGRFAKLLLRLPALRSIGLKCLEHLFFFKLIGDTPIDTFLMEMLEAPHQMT

[2] = target: T2, Peroxisome proliferator-activated receptor gamma (Homo sapiens, UniProt P37231); experiment: Binding affinity to recombinant PPARgamma LBD (unknown origin) by isothermal titration calorimetry
T2 sequence (P37231 whole entry): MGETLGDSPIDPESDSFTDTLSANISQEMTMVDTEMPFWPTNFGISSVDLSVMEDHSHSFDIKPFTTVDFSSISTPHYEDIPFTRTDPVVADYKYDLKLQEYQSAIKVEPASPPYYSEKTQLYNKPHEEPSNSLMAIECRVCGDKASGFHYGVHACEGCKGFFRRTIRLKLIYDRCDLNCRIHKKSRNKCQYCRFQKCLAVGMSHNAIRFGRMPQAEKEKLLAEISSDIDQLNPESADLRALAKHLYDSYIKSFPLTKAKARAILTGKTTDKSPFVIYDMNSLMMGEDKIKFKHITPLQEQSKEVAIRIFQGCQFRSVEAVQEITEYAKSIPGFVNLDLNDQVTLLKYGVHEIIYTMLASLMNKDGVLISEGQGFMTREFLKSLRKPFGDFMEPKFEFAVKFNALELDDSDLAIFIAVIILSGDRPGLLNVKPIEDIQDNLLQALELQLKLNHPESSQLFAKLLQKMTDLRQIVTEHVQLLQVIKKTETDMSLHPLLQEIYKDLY

[3] = target: T3, Retinoic acid receptor RXR-gamma (Homo sapiens) (UniProt P48443); experiment: Agonist activity at recombinant human pFA-CMV fused RXRgamma LBD expressed in HEK293T cells transfected with pFR-luciferase plasmid and pRL-SV40 plasmid at 10 uM incubated for 14 to 16 hrs by dual glo luciferase reporter gene assay; assay type: cell-based; conditions: HEK-293T
T3 sequence (whole entry): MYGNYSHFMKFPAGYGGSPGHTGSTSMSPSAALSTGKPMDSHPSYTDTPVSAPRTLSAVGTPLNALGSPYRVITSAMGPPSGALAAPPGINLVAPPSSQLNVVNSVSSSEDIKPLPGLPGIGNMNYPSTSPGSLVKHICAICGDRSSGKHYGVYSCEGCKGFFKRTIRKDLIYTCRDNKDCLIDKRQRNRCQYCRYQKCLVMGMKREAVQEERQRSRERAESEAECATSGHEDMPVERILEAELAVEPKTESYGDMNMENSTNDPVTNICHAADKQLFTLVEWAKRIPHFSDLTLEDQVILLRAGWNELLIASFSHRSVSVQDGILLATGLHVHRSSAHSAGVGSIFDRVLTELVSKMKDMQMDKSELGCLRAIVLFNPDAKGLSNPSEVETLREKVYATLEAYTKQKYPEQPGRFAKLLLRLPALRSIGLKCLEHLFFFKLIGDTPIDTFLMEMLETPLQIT

[4] = target: T1, Retinoic acid receptor RXR-alpha (Homo sapiens); experiment: Agonist activity at recombinant human pFA-CMV fused RXRalpha LBD expressed in HEK293T cells transfected with pFR-luciferase plasmid and pRL-SV40 plasmid incubated for 14 to 16 hrs by dual glo luciferase reporter gene assay relative to control; assay type: cell-based; conditions: HEK-293T
[5] = target: T4, Retinoic acid receptor RXR-alpha (Homo sapiens, UniProt P19793); experiment: Binding affinity to RXRalpha LBD (unknown origin) by isothermal titration calorimetry
T4 sequence (P19793 whole entry): T1 sequence (whole entry)

[6] = target: T4, Retinoic acid receptor RXR-alpha; experiment: Agonist activity at recombinant human pFA-CMV fused RXRalpha LBD expressed in HEK293T cells transfected with pFR-luciferase plasmid and pRL-SV40 plasmid incubated for 14 to 16 hrs by dual glo luciferase reporter gene assay; assay type: cell-based, HEK-293T; conditions: read-out: EC50
[7] = target: T5, Peroxisome proliferator-activated receptor gamma (Homo sapiens) (UniProt P37231); experiment: Agonist activity at PPARgamma in human HepG2 cells with THRA knockdown assessed as induction of CD36 mRNA expression incubated for 8 hrs by qPCR analysis; assay type: cell-based
T5 sequence (whole entry): T2 sequence (P37231 whole entry)

[8] = target: T6, Retinoic acid receptor RXR-beta (Homo sapiens) (UniProt P28702); experiment: Agonist activity at recombinant human pFA-CMV fused RXRbeta LBD expressed in HEK293T cells transfected with pFR-luciferase plasmid and pRL-SV40 plasmid at 10 uM incubated for 14 to 16 hrs by dual glo luciferase reporter gene assay; assay type: cell-based; conditions: HEK-293T
T6 sequence (whole entry): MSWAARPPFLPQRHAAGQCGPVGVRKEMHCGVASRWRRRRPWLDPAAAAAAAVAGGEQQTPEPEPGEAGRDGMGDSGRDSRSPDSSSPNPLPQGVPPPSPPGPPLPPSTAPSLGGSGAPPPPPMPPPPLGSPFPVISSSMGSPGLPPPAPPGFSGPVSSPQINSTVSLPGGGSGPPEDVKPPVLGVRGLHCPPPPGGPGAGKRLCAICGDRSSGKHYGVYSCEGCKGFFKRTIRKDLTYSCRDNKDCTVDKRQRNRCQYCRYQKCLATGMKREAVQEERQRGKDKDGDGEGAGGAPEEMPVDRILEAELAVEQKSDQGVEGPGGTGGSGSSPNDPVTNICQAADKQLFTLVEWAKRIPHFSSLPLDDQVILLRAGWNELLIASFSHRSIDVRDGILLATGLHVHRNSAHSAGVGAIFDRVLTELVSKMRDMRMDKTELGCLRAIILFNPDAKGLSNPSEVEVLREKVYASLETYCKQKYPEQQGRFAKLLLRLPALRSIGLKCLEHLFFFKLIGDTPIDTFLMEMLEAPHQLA

[9] = target: T2, Peroxisome proliferator-activated receptor gamma; experiment: Agonist activity at recombinant human pFA-CMV fused PPARgamma expressed in HEK293T cells transfected with pFR-luciferase plasmid and pRL-SV40 plasmid incubated for 14 to 16 hrs by dual glo luciferase reporter gene assay; assay type: cell-based, HEK-293T
[10] = target: T5, Peroxisome proliferator-activated receptor gamma (Homo sapiens); experiment: Agonist activity at PPARgamma in human HepG2 cells with THRB knockdown assessed as induction of CD36 mRNA expression incubated for 8 hrs by qPCR analysis; assay type: cell-based

| Activity [1] | Kd [2] | Activity [3] | fold change (FC) [4] | Kd [5] | EC50 [6] | Activity [7] | Activity [8] | EC50 [9] | Activity [10] | Compound |
| --- | --- | --- | --- | --- | --- | --- | --- | --- | --- | --- |
| Active | 400 nM | Active | 7.4 | 930 nM | 15400 nM | Dose-dependent effect | Active | 12000 nM | Dose-dependent effect | N[C@@H](Cc1cc(I)c(Oc2cc(I)c(O)c(I)c2)c(I)c1)C(=O)O [LEVOTHYROXINE] |
| Active | 110 nM | Active | 9.1 | 1500 nM | 1320 nM | Dose-dependent effect | Active | 100 nM | Dose-dependent effect | O=C(O)Cc1cc(I)c(Oc2cc(I)c(O)c(I)c2)c(I)c1 [TETRAC] |
